According to patent US9725448B2, “Neprilysin inhibitors” (THERAVANCE BIOPHARMA R&D IP, LLC, priority 2011, dated 2017):
pKi: −log10 of the molar value. Values belong to the molecule of their own block, whether it stands above or below them.

Target: T1, human NEP (Homo sapiens, UniProt P08473)
T1 construct: purchased R&D Systems, Minneapolis, Minn; 1182-ZN
Assay: In vitro enzyme inhibition assay at human NEP (fluorogenic peptide substrate)
Assay type: biochemical
Conditions: pKi values at human NEP (recombinant), given as ranges
Experimental: The inhibitory activities of compounds at human and rat neprilysin (EC 3.4.24.11; NEP) and human angiotensin converting enzyme (ACE) were determined using in vitro assays as described below.
Recombinant human NEP and recombinant human ACE were obtained commercially (R&D Systems, Minneapolis, Minn., catalog numbers 1182-ZN and 929-ZN, respectively). The fluorogenic peptide substrate Mca-D-Arg-Arg-Leu-Dap-(Dnp)-OH (Medeiros et al. (1997) Braz. J. Med. Biol. Res. 30:1157-62; Anaspec, San Jose, Calif.) and Abz-Phe-Arg-Lys(Dnp)-Pro-OH (Araujo et al. (2000) Biochemistry 39:8519-8525; Bachem, Torrance, Calif.) were used in the NEP and ACE assays respectively.
The assays were performed in 384-well white opaque plates at 37° C. using the fluorogenic peptide substrates at a concentration of 10 μM in Assay Buffer (NEP: 50 mM HEPES, pH 7.5, 100 mM NaCl, 0.01% polyethylene glycol sorbitan monolaurate (Tween-20), […]; ACE: 50 mM HEPES, pH 7.5, 100 mM NaCl, 0.01% Tween-20, 1 μM ZnSO4).
Test compounds were assayed over the range of concentrations from 10 μM to 20 pM. Test compounds were added to the enzymes and incubated for 30 minute at 37° C. prior to initiating the reaction by the addition of substrate. Reactions were terminated after 20 minutes of incubation at 37° C. by the addition of glacial acetic acid to a final concentration of 3.6% (v/v).
Plates were read on a fluorometer with excitation and emission wavelengths set to 320 nm and 405 nm, respectively. Inhibition constants were obtained by nonlinear regression of the data using the equation (GraphPad Software, Inc., San Diego, Calif.): ν=ν0/[1+(I/K′)] where ν is the reaction rate, ν0 is the uninhibited reaction rate, I is the inhibitor concentration and K′ is the apparent inhibition constant.
Compounds of the invention were tested in this assay and found to have pKi values at human NEP as follows.

T1 sequence (P08473 52-750 limits assumed): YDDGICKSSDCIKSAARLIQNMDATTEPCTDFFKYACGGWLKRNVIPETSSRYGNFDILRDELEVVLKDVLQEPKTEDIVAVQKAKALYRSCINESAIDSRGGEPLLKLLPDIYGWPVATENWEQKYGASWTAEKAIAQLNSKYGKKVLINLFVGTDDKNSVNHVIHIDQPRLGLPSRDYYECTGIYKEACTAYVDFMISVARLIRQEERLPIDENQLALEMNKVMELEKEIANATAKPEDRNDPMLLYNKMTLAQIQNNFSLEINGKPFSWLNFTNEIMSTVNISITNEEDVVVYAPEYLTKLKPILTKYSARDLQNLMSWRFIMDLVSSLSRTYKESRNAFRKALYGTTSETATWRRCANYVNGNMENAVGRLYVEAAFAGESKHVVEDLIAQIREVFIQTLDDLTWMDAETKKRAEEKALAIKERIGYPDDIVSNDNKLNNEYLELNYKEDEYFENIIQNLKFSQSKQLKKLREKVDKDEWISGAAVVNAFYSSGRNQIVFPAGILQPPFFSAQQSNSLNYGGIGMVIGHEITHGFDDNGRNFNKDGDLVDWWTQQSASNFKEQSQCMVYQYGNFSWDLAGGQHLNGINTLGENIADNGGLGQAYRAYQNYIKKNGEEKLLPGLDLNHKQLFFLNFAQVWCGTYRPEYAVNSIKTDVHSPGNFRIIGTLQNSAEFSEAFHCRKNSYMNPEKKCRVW

SMILES: CC(O)(CN(Cc1ccc(-c2ccccc2)cc1)NC(=O)c1cc(O)no1)C(=O)O (stereo not shown) [Example 3B, 3-[N-Biphenyl-4-ylmethyl-N′-(3-hydroxy-isoxazole-5-carbonyl)-hydrazino]-2-hydroxy-2-methyl-propionic acid]
pKi: 8.00 to 8.90

SMILES: CC(O)(CN(Cc1ccc(-c2ccccc2)cc1)NC(=O)c1nnc(Cl)[nH]1)C(=O)O (stereo not shown) [Example 4-2, 3-[N-Biphenyl-4-ylmethyl-N′-(5-chloro-4H-[1,2,4]triazole-3-carbonyl)-hydrazino]-2-hydroxy-2-methyl-propionic acid]
pKi: 6.00 to 6.90

SMILES: COc1cc(C(=O)NN(Cc2ccc(-c3ccccc3)cc2)CC(C)(O)C(=O)O)on1 (stereo not shown) [Example 4-3, 3-[N-Biphenyl-4-ylmethyl-N′-(3-methoxy-isoxazole-5-carbonyl)-hydrazino]-2-hydroxy-2-methyl-propionic acid]
pKi: 6.00 to 6.90

SMILES: CC(O)(CN(Cc1ccc(-c2ccccc2)cc1)NC(=O)c1cnc(O)nc1)C(=O)O (stereo not shown) [Example 4-4, 3-[N-Biphenyl-4-ylmethyl-N′-(2-hydroxy-pyrimidine-5-carbonyl)-hydrazino]-2-hydroxy-2-methyl-propionic acid]
pKi: 7.00 to 7.90

SMILES: CC(O)(CN(Cc1ccc(-c2ccccc2)cc1)NC(=O)c1cc(C(=O)O)n[nH]1)C(=O)O (stereo not shown) [Example 4-6, 5-[N′-Biphenyl-4-ylmethyl-N′-(2-carboxy-2-hydroxy-propyl)-hydrazinocarbonyl]-1H-pyrazole-3-carboxylic acid]
pKi: 8.00 to 8.90

SMILES: CN(C)C(=O)c1cc(C(=O)NN(Cc2ccc(-c3ccccc3)cc2)CC(C)(O)C(=O)O)[nH]n1 (stereo not shown) [Example 4-7, 3-[N-Biphenyl-4-ylmethyl-N′-(5-dimethylcarbamoyl-2H-pyrazole-3-carbonyl)-hydrazino]-2-hydroxy-2-methyl-propionic acid]
pKi: 7.00 to 7.90

SMILES: CC(O)(CN(Cc1ccc(-c2ccccc2)cc1)NC(=O)c1cc(C(=O)N2CCCC2)n[nH]1)C(=O)O (stereo not shown) [Example 4-8, 3-{N-Biphenyl-4-ylmethyl-N′-[5-(pyrrolidine-1-carbonyl)-2H-pyrazole-3-carbonyl]-hydrazino}-2-hydroxy-2-methyl-propionic acid]
pKi: 7.00 to 7.90

SMILES: CC(O)(CN(Cc1ccc(-c2cccc(F)c2)cc1)NC(=O)c1cc(O)no1)C(=O)O (stereo not shown) [Example 5, 3-[N-(3′-Fluorobiphenyl-4-ylmethyl)-N′-(3-hydroxy-isoxazole-5-carbonyl)-hydrazino]-2-hydroxy-2-methyl-propionic Acid]
pKi: 8.00 to 8.90

SMILES: C[C@@](O)(CN(Cc1ccc(-c2cc(Cl)ccc2F)cc1)NC(=O)c1cc(O)no1)C(=O)O [Example 6A, (R)-3-[N-(5′-Chloro-2′-fluorobiphenyl-4-ylmethyl)-N′-(3-hydroxy-isoxazole-5-carbonyl)-hydrazino]-2-hydroxy-2-methyl-propionic acid]
pKi: ≥ 9.00

SMILES: C[C@@](O)(CN(Cc1ccc(-c2cccc(Cl)c2)cc1)NC(=O)c1cnn[nH]1)C(=O)O [Example 7-1, (R)-3-[N-(3′-Chlorobiphenyl-4-ylmethyl)-N′-(3H-[1,2,3]triazole-4-carbonyl)-hydrazino]-2-hydroxy-2-methyl-propionic acid]
pKi: 8.00 to 8.90

SMILES: C[C@@](O)(CN(Cc1ccc(-c2cccc(Cl)c2)cc1)NC(=O)c1cn(O)nn1)C(=O)O [Example 7-2, (R)-3-[N-(3′-Chlorobiphenyl-4-ylmethyl)-N′-(1-hydroxy-1H-[1,2,3]triazole-4-carbonyl)-hydrazino]-2-hydroxy-2-methyl-propionic acid]
pKi: 8.00 to 8.90

SMILES: C[C@@](O)(CN(Cc1ccc(-c2cc(Cl)ccc2F)cc1)NC(=O)c1cn(O)nn1)C(=O)O [Example 7-3, (R)-3-[N-(5′-Chloro-2′-fluorobiphenyl-4-ylmethyl)-N′-(1-hydroxy-1H-[1,2,3]triazole-4-carbonyl)-hydrazino]-2-hydroxy-2-methyl-propionic acid]
pKi: ≥ 9.00

SMILES: C[C@@](O)(CN(Cc1ccc(-c2cccc(Cl)c2)cc1)NC(=O)c1cc(-c2cnccn2)n[nH]1)C(=O)O [Example 7-8, (R)-3-[N-(3′-Chlorobiphenyl-4-ylmethyl)-N′-(5-pyrazin-2-yl-2H-pyrazole-3-carbonyl)-hydrazino]-2-hydroxy-2-methyl-propionic acid]
pKi: 7.00 to 7.90

Continued, values first:

pKi: 8.00 to 8.90
SMILES: C[C@@](O)(C[C@@H](Cc1ccc(-c2ccccc2)cc1)NC(=O)c1cnn[nH]1)C(=O)O [Example 1B, (2R,4R)-5-Biphenyl-4-yl-2-hydroxy-2-methyl-4-[(3H-[1,2,3]triazole-4-carbonyl)-amino]-pentanoic acid]

pKi: 7.00 to 7.90
SMILES: C[C@](O)(C[C@@H](Cc1ccc(-c2ccccc2)cc1)NC(=O)c1cnn[nH]1)C(=O)O [Example 2-1, (2S,4R)-5-Biphenyl-4-yl-2-hydroxy-2-methyl-4-[(3H-[1,2,3]triazole-4-carbonyl)-amino]-pentanoic acid]

pKi: 7.00 to 7.90
SMILES: CC(O)(C[C@@H](Cc1ccc(-c2ccccc2)cc1)NC(=O)c1nc[nH]n1)C(=O)O (stereo partly drawn) [Example 2-2, (R)-5-Biphenyl-4-yl-2-hydroxy-2-methyl-4-[(2H-[1,2,4]triazole-3-carbonyl)-amino]-pentanoic acid]

pKi: 7.00 to 7.90
SMILES: CC(O)(C[C@@H](Cc1ccc(-c2ccccc2)cc1)NC(=O)c1n[nH]c(Cl)n1)C(=O)O (stereo partly drawn) [Example 2-3, (R)-5-Biphenyl-4-yl-4-[(5-chloro-2H-[1,2,4]triazole-3-carbonyl)-amino]-2-hydroxy-2-methyl-pentanoic acid]

pKi: 8.00 to 8.90
SMILES: CC(O)(C[C@@H](Cc1ccc(-c2ccccc2)cc1)NC(=O)c1cc(F)c2nn[nH]c2c1)C(=O)O (stereo partly drawn) [Example 2-4, (R)-5-Biphenyl-4-yl-4-[(7-fluoro-3H-benzotriazole-5-carbonyl)-amino]-2-hydroxy-2-methyl-pentanoic acid]

pKi: 8.00 to 8.90
SMILES: CC(O)(C[C@@H](Cc1ccc(-c2ccccc2)cc1)NC(=O)c1cc(Cl)c2nn[nH]c2c1)C(=O)O (stereo partly drawn) [Example 2-5, (R)-5-Biphenyl-4-yl-4-[(7-chloro-3H-benzotriazole-5-carbonyl)-amino]-2-hydroxy-2-methyl-pentanoic acid]

pKi: 7.00 to 7.90
SMILES: C[C@](O)(C[C@@H](Cc1ccc(-c2ccccc2)cc1)NC(=O)c1cnc2nn[nH]c2c1)C(=O)O [Example 2-6, (2S,4R)-5-Biphenyl-4-yl-2-hydroxy-2-methyl-4-[(1H-[1,2,3]triazolo[4,5-b]pyridine-6-carbonyl)-amino]-pentanoic acid]

pKi: ≥ 9.00
SMILES: CC(O)(C[C@@H](Cc1ccc(-c2ccccc2)cc1)NC(=O)c1cc(O)no1)C(=O)O (stereo partly drawn) [Example 2-7, (R)-5-Biphenyl-4-yl-2-hydroxy-4-[(3-hydroxy-isoxazole-5-carbonyl)-amino]-2-methyl-pentanoic acid]

pKi: ≥ 9.00
SMILES: C[C@@](O)(C[C@@H](Cc1ccc(-c2ccccc2)cc1)NC(=O)c1cnc(O)nc1)C(=O)O [Example 2-9, (2R,4R)-5-Biphenyl-4-yl-2-hydroxy-4-[(2-hydroxy-pyrimidine-5-carbonyl)-amino]-2-methyl-pentanoic acid]

pKi: 8.00 to 8.90
SMILES: C[C@](O)(C[C@@H](Cc1ccc(-c2ccccc2)cc1)NC(=O)c1cnc(O)nc1)C(=O)O [Example 2-10, (2S,4R)-5-Biphenyl-4-yl-2-hydroxy-4-[(2-hydroxy-pyrimidine-5-carbonyl)-amino]-2-methyl-pentanoic acid]

pKi: 8.00 to 8.90
SMILES: C[C@](O)(C[C@@H](Cc1ccc(-c2ccccc2)cc1)NC(=O)c1cc(C(=O)O)[nH]n1)C(=O)O [Example 2-11, 5-((1R,3S)-1-Biphenyl-4-ylmethyl-3-carboxy-3-hydroxy-butylcarbamoyl)-2H-pyrazole-3-carboxylic acid]

pKi: 8.00 to 8.90
SMILES: CC(O)(C[C@@H](Cc1ccc(-c2ccccc2)cc1)NC(=O)c1cc(O)n[nH]1)C(=O)O (stereo partly drawn) [Example 2-12, (R)-5-Biphenyl-4-yl-2-hydroxy-4-[(5-hydroxy-2H-pyrazole-3-carbonyl)-amino]-2-methyl-pentanoic acid]

pKi: ≥ 9.00
SMILES: C[C@@](O)(C[C@@H](Cc1ccc(-c2ccccc2)cc1)NC(=O)c1cc(C(=O)O)n[nH]1)C(=O)O [Example 2-13, 5-((1R,3R)-1-Biphenyl-4-ylmethyl-3-carboxy-3-hydroxy-butylcarbamoyl)-1H-pyrazole-3-carboxylic acid]

pKi: 7.00 to 7.90
SMILES: CC(O)(CN(Cc1ccc(-c2ccccc2)cc1)NC(=O)c1cnn[nH]1)C(=O)O (stereo not shown) [Example 4-1, 3-[N-Biphenyl-4-ylmethyl-N′-(3H-[1,2,3]triazole-4-carbonyl)-hydrazino]-2-hydroxy-2-methyl-propionic acid]

pKi: 7.00 to 7.90
SMILES: CC(O)(CN(Cc1ccc(-c2ccccc2)cc1)NC(=O)c1cc(O)n[nH]1)C(=O)O (stereo not shown) [Example 4-5, 3-[N-Biphenyl-4-ylmethyl-N′-(5-hydroxy-2H-pyrazole-3-carbonyl)-hydrazino]-2-hydroxy-2-methyl-propionic acid]
